Laboratory results taken from patent US12459898B2, “Polycationic amphiphiles as antimicrobial agents and methods using same” (Temple University-Of The Commonwealth System of Higher …, priority 2016, dated 2025).
Values after ≈ are worked out from the molar mass of the structure shown.

Legend:
Type in all cases: cell-based
[1] = test system: methicillin-susceptible Staphylococcus aureus MSSA (SH1000); experiment: Minimum inhibitory concentration (MIC), S. aureus; details: MH media, 37° C., 72 hours, visual growth
Experimental: (§1) As used herein, the term “minimum inhibitory concentration (MIC)” refers to the lowest concentration of an antimicrobial agent that will inhibit the visible growth of a microorganism after overnight incubation. MIC values against bacteria, for example, the Gram-positive Staphylococcus aureus and Enterococcus faecalis and the Gram-negative Escherichia coli and Pseudomonas aeruginosa were determined by standard methods. See also P. A. Wayne, Methods for Dilution Antimicrobial Tests for Bacteria that Grow Aerobically; Approved Standard, Ninth Edition, 2012, CLSI Document M07-A9, Vol. 32 No. 2, which is incorporated by reference herein in its entirety.
(§2) For all biological assays, laboratory strains of methicillin-susceptible Staphylococcus aureus MSSA (SH1000), Enterococcus faecalis (OG1RF), Escherichia coli (MC4100), Pseudomonas aeruginosa (PAO1), community-acquired methicillin-resistant Staphylococcus aureus CA-MRSA (USA300-0114), and hospital-acquired methicillin-resistant Staphylococcus aureus HA-MRSA (ATCC 33591) were grown with shaking at 37° C. overnight from freezer stocks in 10 mL of the indicated media.
(§3) Compounds were serially diluted two-fold from stock solutions to yield twelve test concentrations. Overnight S. aureus, E. faecalis, E. coli, P. aeruginosa, USA300-0114 (CA-MRSA), and ATCC 33591 (HA-MRSA) cultures diluted to ca. 10^6 cfu/mL in MH media and 100 μL were inoculated into each well of a U-bottom 96-well plate (BD Biosciences, BD 351177) containing 100 μL of compound solution. Plates were incubated statically at 37° C. for 72 hours upon which time wells were evaluated visually for bacterial growth. The MIC was determined as the lowest concentration of compound resulting in no bacterial growth visible to the naked eye, based on the majority of three independent experiments. Aqueous DMSO controls were conducted as appropriate for each compound.

[2] = test system: Enterococcus faecalis (OG1RF); experiment: Minimum inhibitory concentration (MIC), E. faecalis; details: MH media, 37° C., 72 hours, visual growth
Experimental: as §1, §2, §3

[3] = test system: Escherichia coli (MC4100); experiment: Minimum inhibitory concentration (MIC), E. coli; details: MH media, 37° C., 72 hours, visual growth
Experimental: as §1, §2, §3

[4] = test system: Pseudomonas aeruginosa (PAO1); experiment: Minimum inhibitory concentration (MIC), P. aeruginosa; details: MH media, 37° C., 72 hours, visual growth
Experimental: as §1, §2, §3

[5] = test system: community-acquired methicillin-resistant Staphylococcus aureus CA-MRSA (USA300-0114); experiment: Minimum inhibitory concentration (MIC), CA-MRSA; details: MH media, 37° C., 72 hours, visual growth
Experimental: as §1, §2, §3

[6] = test system: hospital-acquired methicillin-resistant Staphylococcus aureus HA-MRSA (ATCC 33591); experiment: microbe, parasite or virus in culture; details: for MIC: Staphylococcus aureus, 72 h, read-out: MIC, HA-MRSA
Experimental: as §1, §2, §3

[7] = test system: red blood cells (mechanically defibrinated sheep blood); experiment: Red blood cell (RBC) lysis assay (Lysis20); details: for Lysis20 (highest concentration at which <20% of RBCs are lysed): sheep RBCs in PBS, 37° C., 1 hour, absorbance 540 nm, Table 1
Excerpt: These assessments followed standard protocols (Minbiole et al., 2016, Tetrahedron, 72: 3559-3566, Forman et al., 2016, ChemMedChem, 11: 1401-1405, Forman et al., 2016, ChemMedChem, 11: 958-962, Mitchell et al., 2015, ChemBioChem, 16: 2299-2303, Jennings et al., 2015, ACS Inf. Dis, 1: 304-308, Paniak et al., 2014, Bioorg. Med. Chem. Lett, 24: 5824-5828, Ator et al., 2014, Bioorg. Med. Chem. Lett, 24: 3706-3709, Jennings et al., 2014, ChemBioChem, 15: 2211-2215, Black et al., 2014, Bioorg. Med. Chem. Lett, 24, 99-102, Grenier et al., 2012, Bioorg. Med. Chem. Lett, 22: 4055-4058).
RBC lysis assays were performed on mechanically defibrinated sheep blood (Hemostat Labs: DSB030). 1.5 mL of blood was placed into a microcentrifuge tube and centrifuged at 10,000 rpm for ten minutes. The supernatant was removed and the cells were resuspended with 1 mL of phosphate-buffered saline (PBS). The suspension was centrifuged as previously, the supernatant was removed, and cells were resuspended two more times. The final cell suspension was diluted twentyfold with PBS. The twentyfold suspension dilution was then aliquoted into microcentrifuge tubes containing compound serially diluted in PBS. TritonX (1% by volume) served as a positive control (100% lysis marker) and sterile PBS served as a negative control (0% lysis marker). Samples were then placed in an incubator at 37° C. and shaken at 200 rpm. After 1 hour, the samples were centrifuged at 10,000 rpm for ten minutes. The absorbance of the supernatant was measured with a UV spectrometer at a 540 nm wavelength.

Structure (SMILES)	MIC [1] [µM]	MIC [2] [µM]	MIC [3] [µM]	MIC [4] [µM]	MIC [5] [µM]	MIC [6] [µM]	Lysis20 (highest concentration at which <20% of RBCs are lysed) [7] [μm]	lysis20 (hemolysis activity) ([7]; sheep RBCs, values restated in text) [µM]	antibacterial resistance (increase in MIC) ([6]; strain not given, Table 1 fits HA-MRSA vs S. aureus) [fold]
CCCCCCCCCCCCCCCCCC[n+]1cccc(CN(Cc2ccc[n+](CCCCCCCCCCCCCCCCCC)c2)Cc2ccc[n+](CCCCCCCCCCCCCCCCCC)c2)c1 [M3Pyr-18,18,18]	8	32	63	> 250	4	4	8		
c1cc(CCCc2ccncc2)ccn1 [Compound 2Pyr, 1,3-di-(4-pyridyl)propane, reference compound]	> 250	> 250	> 250	> 250	> 250	> 250	>250		
CCCCCCCCCCCCCC[n+]1cccc(CN(Cc2ccc[n+](CCCCCCCCCCCCCC)c2)Cc2ccc[n+](CCCCCCCCCCCCCC)c2)c1 [M3Pyr-14,14,14]	2	2	4	32	1	1	4		
CCCCCCCCCCCCCCCCCC[n+]1ccc(CCCc2cc[n+](CCCCCCCCCCCCCCCCCC)cc2)cc1 [2Pyr-18,18]	8	8	> 250	> 250	4	16	32		
CCCCCCCCCCCCCCCC[n+]1cccc(CN(Cc2ccc[n+](CCCCCCCCCCCCCCCC)c2)Cc2ccc[n+](CCCCCCCCCCCCCCCC)c2)c1 [M3Pyr-16,16,16]	2	8	125	≥ 250	4	2	4		
CCCCCCCCCCCCC[n+]1ccc(CCCc2cc[n+](CCCCCCCCCCCCC)cc2)cc1 [2Pyr-13,13]	0.5	0.5	1	8	0.25	0.5	16		
CCCCCCCCCCCCCCCC[n+]1ccc(CCCc2cc[n+](CCCCCCCCCCCCCCCC)cc2)cc1 [2Pyr-16,16]	4	8	63	> 250	4	8	63		
c1cc(CN(Cc2ccncc2)Cc2ccncc2)ccn1 [Compound P3Pyr, reference compound]	> 250	> 250	> 250	> 250	> 250	> 250	125		
CCCCCCCCCCCC[n+]1ccc(CCCc2cc[n+](CCCCCCCCCCCC)cc2)cc1 [2Pyr-12,12]	0.5	0.5	1	4	0.25	0.5	4	4	
CCCCCCCCCCCCCC[n+]1ccc(CCCc2cc[n+](CCCCCCCCCCCCCC)cc2)cc1 [2Pyr-14,14]	8	1	4	250	2	2	63		
CCCCCCCC[n+]1cccc(CN(Cc2ccc[n+](CCCCCCCC)c2)Cc2ccc[n+](CCCCCCCC)c2)c1 [M3Pyr-8,8,8]	2	8	8	32	1	2	>250		
CCCCCCCCCC[n+]1ccc(CCCc2cc[n+](CCCCCCCCCC)cc2)cc1 [2Pyr-10,10]	0.5	1	0.5	16	0.25	1	16		
CCCCCCCCCC[n+]1cccc(CN(Cc2ccc[n+](CCCCCCCCCC)c2)Cc2ccc[n+](CCCCCCCCCC)c2)c1 [M3Pyr-10,10,10]	0.5	1	1	2	0.5	0.5	4		
CCCCCCCCCCC[n+]1cccc(CN(Cc2ccc[n+](CCCCCCCCCCC)c2)Cc2ccc[n+](CCCCCCCCCCC)c2)c1 [M3Pyr-11,11,11]	0.5	1	1	4	0.5	0.5	4		
CCCCCCCCCCCC[n+]1cccc(CN(Cc2ccc[n+](CCCCCCCCCCCC)c2)Cc2ccc[n+](CCCCCCCCCCCC)c2)c1 [M3Pyr-12,12,12]	1	1	1	8	0.5	1	4		
CCCCCCCCCCCCC[n+]1cccc(CN(Cc2ccc[n+](CCCCCCCCCCCCC)c2)Cc2ccc[n+](CCCCCCCCCCCCC)c2)c1 [M3Pyr-13,13,13]	1	1	2	8	0.25	0.5	2		
CCCCCCCC[n+]1ccc(CCCc2cc[n+](CCCCCCCC)cc2)cc1 [2Pyr-8,8]	8	63	32	> 250	16	63	125		8
c1cncc(CN(Cc2cccnc2)Cc2cccnc2)c1 [Compound M3Pyr, reference compound]	250 (≈ 72.6 µg/mL)	> 250	> 250	> 250	250 (≈ 72.6 µg/mL)	250 (≈ 72.6 µg/mL)	>250		
